Experimental data published in patent publication US4861865A, “Novel antithrombin peptide” (Washington University, priority 1989, dated 1989).

Molecular target: T1, human thrombin (Homo sapiens, UniProt P00734)
T1 construct: human thrombin, bovine thrombin, and Ancrod; purchased Sigma Chemical
Experiment: Fibrinogen clotting assay (fibrometer) with thrombin
Format: biochemical
Details: final concentration of 10 U/ml
Protocol: Fibrinogen clotting times (S=seconds) in the presence of varying concentrations (μM) of the peptide were determined with a fibrometer following addition of thrombin. Each concentration of peptide was assayed in triplicate. Error bars indicate standard deviations.
All reagents were equilibrated to 37° C. before mixing.

effect on clotting time: no effect on clotting time
Substance: Heparin
